Data on three compounds can be found in patent US20230321074A1, “USE OF CHIAURANIB IN COMBINATION WITH IMMUNE CHECKPOINT INHIBITOR IN ANTITUMOR THERAPY” (SHENZHEN CHIPSCREEN BIOSCIENCES, CO., LTD., priority 2020, published 2023).

“And” between values parts separate entries of the source, which are not always exact repeats. Equal values may be shown once. “Also recorded” adds a separate entry of the source.

In data set [1] the test system is colonic cancer cell line CT-26. Briefly: Efficacy on tumor Balb/c mouse models inoculated with colonic cancer cell line CT-26 (tumor volume). In kind it is in vivo. Particulars: CT-26 in Balb/c mice; chiauranib 20 mg/kg intragastric once a day; PD-1 antibody 10 mg/kg i.p. twice a week; vs solvent control. The protocol: A large number of CT-26 cells were cultured and kept in a logarithmic growth state. After the number of cells reached a required level, the cells were digested and collected by trypsin, thoroughly washed twice with a large amount of PBS to remove trypsin and serum components, centrifuged at room temperature at 800 rpm for 10 min, and a supernatant was discarded. The cells were resuspended in DMEM without FBS, and the cell concentration was adjusted to 5×10^6 cells/mL.
Under sterile conditions, the cell suspension was injected subcutaneously into the back of Balb/c mice at 100 μL/injection, one injection per mouse. […]
(§1) 8 days after cell inoculation, tumors grew to an average volume of about 100 mm^3, and the tumor-bearing mice were randomly divided into four groups (9 mice per group), that is, a solvent control group, a chiauranib group (20 mg/kg, intragastric administration, once a day), a PD-1 antibody group (10 mg/kg, intraperitoneal injection, twice a week), and a chiauranib and PD-1 antibody combined administration group, marked, raised in separate cages, administered daily in groups, and observed for tumor formation. The longest diameter (length) and the widest diameter (width) perpendicular to the longest diameter of the tumor was measured by using a vernier caliper every 2 days, and the tumor volume was calculated according to a formula: TS=length×(width)^2/2, and recorded. […]

Data set [2] deals with spleen lymphocyte subsets CD4 and CD8. Briefly: Proportions of spleen lymphocyte subsets in CT-26 tumor-bearing mice (flow cytometry). In kind it is in vivo, mouse. Particulars: CT-26 tumor-bearing Balb/c mice; chiauranib 20 mg/kg intragastric once a day; PD-1 antibody 10 mg/kg i.p. twice a week; after last administration on 14th day. The protocol:
as §1, with “recorded. The mice were subjected to intragastric administration once a day regularly, and after the last administration on the 14th day, the mice were sacrificed to take the spleens and make a single cell suspension. 1×10^6 spleen cells were taken and stained with fluorescein labelled anti-CD4 and CD8 antibodies (1:200) at 4° C. for 30 min. After being washed, the cells were resuspended in PBS, and detected by using a flow cytometer FACSCanto II.” for “recorded.”
A general note: A flow cytometer gives signals particle by particle.

Data set [3] concerns mouse liver cancer H22 cells. Briefly: Efficacy on female BALB/c mouse models subcutaneously transplanted with mouse liver cancer H22 cell line. In kind it is in vivo. Here is the method:
Mouse liver cancer H22 cells (purchased from CCTCC; cell No. TC-00011) were cultured in an RPMI-1640 medium (purchased from Gibco) containing 10% fetal bovine serum. H22 cells in exponential growth phase were collected, resuspended in PBS to an appropriate concentration, and subcutaneously inoculated into mice. Female mice were subcutaneously inoculated with 1×10^6 H22 cells on the right front side. After tumors grew to an average volume of 104 mm^3, the mice were randomly grouped (see Table 1) according to the tumor size, administration was carried out on the day of grouping, and the day of inoculation of tumor cells was defined as day 0.
On the 19th day of the experiment (day 15 of administration in groups), an average tumor volume of the solvent control group was measured to be 2060.99 mm^3, the experiment was completed, photos of the tumor-bearing mice were taken, the tumors were taken out and weighed, and photos of the tumors were taken. A formula for calculating tumor volume: tumor volume (mm^3)=1/2×(a×b^2) (where, a represents a long diameter, and b represents a short diameter).

Data set [4] is described as follows: Body weight, deaths and tolerability in H22 tumor-bearing BALB/c mice. In kind it is in vivo. Particulars: H22 model.
Data set [5] relates to MC38-hPD-L1 colon cancer cells. Put plainly: Efficacy on B-hPD-1/hPD-L1 humanized mouse MC38-hPD-L1 colon cancer model. In kind it is in vivo. Particulars: for inhibitory effect on growth of MC38-hPD-L1 subcutaneously transplanted tumors (experiment summary): at test doses: chiauranib 2.5 mg/kg; for inhibitory effect on growth of MC38-hPD-L1 subcutaneously transplanted tumors (experiment summary) / inhibitory effect on growth of MC38-hPD-L1 subcutaneously transplanted tumors (tumor volume) / inhibitory effect on growth of MC38-hPD-L1 subcutaneously transplanted tumors (tumor weight): reference PD-L1 antibody 1 mg/kg and 3 mg/kg; for Tumor volume (mm^3) before administration: baseline; for Tumor volume (mm^3) before administration / Tumor volume (mm^3) Day 27 of administration in groups / Tumor weight: mean ± standard error; for inhibitory effect on growth of MC38-hPD-L1 subcutaneously transplanted tumors (tumor volume): day 27, P<0.05 vs control; for inhibitory effect on growth of MC38-hPD-L1 subcutaneously transplanted tumors (tumor volume) / inhibitory effect on growth of MC38-hPD-L1 subcutaneously transplanted tumors (tumor weight): chiauranib 2.5 mg/kg; for inhibitory effect on growth of MC38-hPD-L1 subcutaneously transplanted tumors (tumor weight) / Tumor weight: end of experiment; for inhibitory effect on growth of MC38-hPD-L1 subcutaneously transplanted tumors (tumor weight): P<0.05 vs control; for Tumor weight / TGITV (%) / TGITW (%): day 27; for TGITV (%): tumor inhibition rate by tumor volume; for TGITW (%): tumor weight inhibition. The protocol:
Mouse colon cancer MC38 cells were purchased from Shunran Biology, cultured in an incubator under 5% CO2 at 37° C., and a medium was Dulbecco's Modified Eagle's Medium containing 10% inactivated fetal bovine serum. Biocytogen carried out genetic modification on the MC38 cells to enable the MC38 cells to overexpress human PD-L1, and knocked out mouse PD-L1, and the cells were named MC38-hPD-L1 cells. A reference PD-L1 antibody used in the experiment was constructed and produced by the in-house laboratory according to a sequence of the marketed antibody drug MPDL3280A.
(§2) A certain number of cells were cultured and collected, the MC38-hPD-L1 cells resuspended in PBS were subcutaneously inoculated into B-hPD-1/hPD-L1 humanized mice on the right side at a concentration of 5×10^5 cells/0.1 mL and a dose of 0.1 mL/mouse. After an average tumor volume reached about 104 mm^3, appropriate mice were selected according to tumor volume and body weight, and uniformly divided into 6 experimental groups, 8 mice per group, and administration was carried out on the day of grouping.
Results were recorded, tumor inhibition rates (TGITV) were calculated, and statistical analysis between groups was carried out according to tumor volume.

The nature of data set [6]: Body weight and tolerability in B-hPD-1/hPD-L1 humanized mice transplanted with MC38-hPD-L1. Type of data set: in vivo, mouse. The conditions noted are these: for Body weight (g) before administration / Body weight change (g) Day 27 of administration / Body weight (g) Day 27 of administration in groups: MC38-hPD-L1 model; for Body weight (g) before administration: baseline; for Body weight (g) before administration / Body weight (g) Day 27 of administration in groups: mean ± standard error; for toxic side effects on animals / safety: at test doses: chiauranib 2.5 mg/kg, reference PD-L1 antibody 1 mg/kg and 3 mg/kg. The protocol: as §2

For data set [7] the following is noted: cited from earlier work.
Setting [8] is: chiauranib 5 mg/kg p.o. QD, mouse PD-1 antibody 5 mg/kg i.p. BIW.
[9] abbreviates: groups G2, G3, G5 (chiauranib 2.5 mg/kg; Reference PD-L1 antibody 1 mg/kg).
Setting [10] is: chiauranib 2.5 mg/kg p.o. QD, Reference PD-L1 antibody 1 mg/kg i.p. Q3D.
Where [11] appears, read: Reference PD-L1 antibody 3 mg/kg i.p. Q3D, chiauranib 2.5 mg/kg p.o. QD in the combination.
Setting [12] is: groups G4, G6 (Reference PD-L1 antibody 3 mg/kg; chiauranib 2.5 mg/kg in the combination).

As to `COc1ccc2c(Oc3ccc4c(C(=O)Nc5ccccc5N)cccc4c3)ccnc2c1` [chiauranib, Chiauranib], the “relative tumor inhibition rate” value in data set [1] was determined as 39%. In data set [2], the “average proportion of spleen lymphocyte subset CD4” value is on record as 9.9% and the “average proportion of spleen lymphocyte subset CD8” value is on record as 6.1%. For the same compound, in data set [3] ((1 - T/C) x 100%, chiauranib 5 mg/kg p.o. QD, mouse PD-1 antibody 5 mg/kg i.p. BIW), the “TGI (%) Day 19 (relative tumor inhibition rate)” value was found to be 26%. In addition, the “T/C (%) Day 19” value in data set [3] (TRTV/CRTV x 100%, chiauranib 5 mg/kg p.o. QD, mouse PD-1 antibody 5 mg/kg i.p. BIW) is 74%. The “Tumor volume (mm^3) Day 19” value in data set [3] (day 15 of administration, chiauranib 5 mg/kg p.o. QD x 15 days, mouse PD-1 antibody 5 mg/kg i.p. BIW x 5, mean ± standard error) was 1527.40 mm^3 and 1527.40 ± 145.56 mm^3. In addition, the “Tumor volume (mm^3) Day 5” value in data set [3] (day of grouping, baseline before treatment, mean ± standard error) is 104.09 ± 2.73 mm^3. The compound also yielded an RTV in data set [3] (relative tumor volume Vt/V0, Day 19, chiauranib 5 mg/kg p.o. QD, mouse PD-1 antibody 5 mg/kg i.p. BIW) of 14.51. In addition, in data set [4] (setting [8]), the “Body weight change rate (%) Day 19” value was determined as 5.59% and the “Number of animals of experiment at the beginning/end” value was 10/10. For the same compound, in data set [4] (day of grouping, baseline, mean ± standard error), the “Average body weight (g) Day 5” value is 21.3 ± 0.3 g. Moreover, the “Average body weight (g) Day 19” value in data set [4] (end of experiment, chiauranib 5 mg/kg p.o. QD, mouse PD-1 antibody 5 mg/kg i.p. BIW, mean ± standard error) was found to be 22.4 ± 0.3 g. In data set [5], the “inhibitory effect on growth of MC38-hPD-L1 subcutaneously transplanted tumors (experiment summary)” value is “significant inhibitory effects”, the “inhibitory effect on growth of MC38-hPD-L1 subcutaneously transplanted tumors (tumor volume)” value is given as “significant inhibitory effects” and the “inhibitory effect on growth of MC38-hPD-L1 subcutaneously transplanted tumors (tumor weight)” value is “significant inhibitory effects”. In addition, the “Tumor volume (mm^3) before administration” value in data set [5] (setting [9]) amounted to 104 ± 4 mm^3. In data set [5] (setting [10]), the “Tumor volume (mm^3) Day 27 of administration in groups” value (“Tumor volume … in groups” below) was determined as 1021 ± 158 mm^3, the “Tumor weight” value is 0.837 ± 0.108 g, the “TGITV (%)” value is given as 58.6% and the “TGITW (%)” value turned out to be 61.7%. The “Body weight (g) before administration” value in data set [6] (setting [9]) came out at 21.1 ± 0.3 g. For the same compound, in data set [6] (setting [10]), the “Body weight change (g) Day 27 of administration” value was “+3.1 g” and the “Body weight (g) Day 27 of administration in groups” value (“Body weight … in groups” below) amounted to 24.2 ± 0.6 g. Also, in data set [6], the “toxic side effects on animals / safety” value is “do not produce toxic side effects to animals; also recorded: do not produce toxic and side effects on animals”.

On to “Reference PD-L1 antibody: constructed and produced by the in-house laboratory according to a sequence of the marketed antibody drug MPDL3280A”, for which, in data set [5] (setting [11]), the “Tumor volume … in groups” value came to 1207 ± 195 mm^3, the “Tumor weight” value amounted to 1.182 ± 0.199 g, the “TGITV (%)” value is given as 50.3% and the “TGITW (%)” value stood at 45.9%. In data set [5], the “inhibitory effect on growth of MC38-hPD-L1 subcutaneously transplanted tumors (experiment summary)” value was “significant inhibitory effects”, the “inhibitory effect on growth of MC38-hPD-L1 subcutaneously transplanted tumors (tumor volume)” value is “significant inhibitory effects” and the “inhibitory effect on growth of MC38-hPD-L1 subcutaneously transplanted tumors (tumor weight)” value is given as “significant inhibitory effects”. Further, the “Tumor volume (mm^3) before administration” value in data set [5] (setting [9]) turned out to be 104 ± 4 mm^3. Further, in data set [5] (setting [12]), the “Tumor volume (mm^3) before administration” value is on record as 104 ± 3 mm^3. In data set [5] (setting [10]), the “Tumor volume … in groups” value was 1469 ± 144 mm^3, the “Tumor weight” value stood at 1.316 ± 0.106 g, the “TGITV (%)” value is listed as 38.5% and the “TGITW (%)” value is reported as 39.8%. In data set [6] (setting [11]), the “Body weight change (g) Day 27 of administration” value is recorded as “+3.7 g” and the “Body weight … in groups” value was 25.0 ± 0.5 g. In addition, in data set [6] (setting [9]), the “Body weight (g) before administration” value came out at 21.6 ± 0.3 g. Besides, the “Body weight (g) before administration” value in data set [6] (setting [12]) was 21.3 ± 0.5 g. In data set [6] (setting [10]), the “Body weight change (g) Day 27 of administration” value is given as “+3.8 g” and the “Body weight … in groups” value worked out at 25.4 ± 0.4 g. Also, the “toxic side effects on animals / safety” value in data set [6] was “do not produce toxic side effects to animals; also recorded: do not produce toxic and side effects on animals”.

As for “avelumab+BSC: PD-L1 antibody drug avelumab (Bavencio, Pfizer and Merck KGaA) plus best supportive care”, in data set [7] (patients with advanced UC after platinum-based chemotherapy), the “median OS” value is 21.4 months. The “overall survival (OS) hazard ratio [HR]” value in data set [7] (vs BSC alone, 95% CI 0.56, 0.86, 1-sided p=0.0005, all enrolled patients) was 0.69. The “increase of OS” value in data set [7] (vs BSC group) is “more than 7 months”.
